In PMC10826971, “Evaluating protein cross-linking as a therapeutic strategy to stabilize SOD1 variants in a mouse model of familial ALS” (PLOS Biology, 2024):
“Also recorded” adds a separate entry of the source.

Assays:
[1] = tested on: fALS SOD1 variants; assay: Size exclusion chromatography (SEC) under native conditions; set-up: species or system human
Experimental: We have analyzed samples with and without cross-linker via SEC with high performance liquid chromatography (SEC-HPLC) to assess the SOD1 protein composition in its native state. […] For inducing aggregation, all samples (final conc. 1 μm) were incubated at 37°C for 1 h prior the SEC analysis. […] An isocratic mobile phase consisting of 100 mM sodium phosphate, 200 mM sodium chloride (pH 7.4) was used for 6 min to analyze each sample at wavelength of 280 nm. Waters BEH 200 standard was injected at the beginning, middle, and at the end to confirm the retention time was not shifting throughout the entire experiment.

[2] = Blood-brain barrier penetration; type: in vivo, mouse
[3] = target: SOD1^G93A (Homo sapiens, UniProt P00441, G94A); assay: Small-angle x-ray solution scattering (SAXS); set-up: made in house; host or cells: EGy118ΔSOD1 yeast, YEp351 expression vector; conditions: GNOM; untreated over 200 Å
Experimental: SAXS data were collected at the G1 beamline at Cornell High Energy Synchrotron Source (CHESS). For each sample, 2 measurements were taken, one of the protein with buffer and one with buffer by itself. Solution scattering data were captured every second for 10 frames. The 10 frames of both buffer and protein were then averaged and the buffer was subtracted out to get the scattering for the protein. Samples were run in a 96-well plate and held at 4°C continuously. Data collection was in the scattering angle (q) range of 0.008 to 0.71 Å^-1 and processed using the software, RAW.
Control sample contained 5% MeOH (final conc. 2.5%). Samples were then incubated at 37°C for 6 h to ensure complete cross-linking. After incubation, excess compound was buffer exchanged out of each sample using a 10 kDa MWCO ultrafiltration device, and 320 μL is diluted to 15 mL into HEPES buffer, spun down to approximately 500 μL, and resuspended in another 15 mL of HEPES buffer. After the final spin, samples were removed and concentrated in a smaller ultrafiltration device and brought to approximately 70 μL final volume (4.7 μm). Samples were flash frozen and stored at –80°C prior to analysis.
The GNOM program was used to evaluate the pair distribution plot using an indirect Fourier transform. […]

[4] = target: T1, EGFP-labeled SOD1 (wild-type, fALS variants, Cys111Ser, F50E/G51E) (Homo sapiens, UniProt P00441, C112S); assay: Immunoblotting for SOD1-EGFP cross-linking in NSC-34 cells; type: cell-based, mouse NSC-34 cells; conditions: 20 μm S-XL6
T1 construct: expressed in transfected cells; host or cells: NSC-34 mouse neuroblastoma/motor neuron hybrid cells
Experimental: (§1) Mouse neuroblastoma/motor neuron hybrid cells (NSC-34) were cultured and maintained as previously described. Briefly, NSC-34 cells were cultured in Dulbecco’s Modified Eagle’s Medium with F12 supplement (DMEM/F12, Invitrogen Australia) containing 10% (v/v) heat-inactivated fetal bovine serum (FBS, Bovogen Biologicals, Australia) and 2 mM L-Glutamine (Invitrogen, Australia). Cells were passaged using 0.25% trypsin, 0.02% EDTA (Invitrogen, Australia). Cells were maintained within humidified incubators at 37°C with 5% CO2.
(§2) To transfect NSC-34 cells, they were first plated out to 40% confluency in either 6-well or 12-well tissue culture-treated plates and cultured for 24 h. Following this, TransIT-X2 reagent (Mirus Bio, USA) was used according to the manufacturer’s instructions to transfect NSC-34’s (1 μg DNA per well for 12-well plates, 2.5 μg per well for a 6-well plate). Cells were then incubated for 8 h prior to replating for experiments into other plates or chambers.
(§3) Transfected NSC-34 cells were plated out into 12-well plates and left overnight. […] Cells were then harvested via aspiration and pelleted (300 × g). Lysis and immunoblots were carried out as previously described. Briefly, cell pellets were lysed in ice-cold lysis buffer containing protease inhibitors (Thermo Fisher, USA) and N-ethylmaleimide (NEM) at a final concentration of 1 mg/mL. Protein concentration was measured by DC assay (BioRad, Australia) and samples were denatured in SDS-sample buffer containing 40 mM NEM at 90°C for 5 min. Lysates were loaded into 26-lane stain-free gels (BioRad, Australia) and electrophoresed. Proteins were transferred to 0.2 μm PVDF membranes for 1 h at 4°C. Membranes were blocked in 5% skim milk in TBST for 1 h prior to addition to primary antibody which as a rabbit anti-GFP antibody (ab290, 1:5,000, Abcam USA) and incubated overnight at 4°C. Membranes were washed 3× and then incubated for 1 h at room temperature in secondary antibody (goat anti-rabbit HRP conjugate at 1:5,000 (catalog no.: P0448; Dako). Membranes were then washed 3× prior to developing with SuperSignal West Pico Plus substrate (Thermo Fisher Scientific).

[5] = tested on: EGFP-labeled SOD1 (wild-type, fALS variants, Cys111Ser, F50E/G51E); assay: as above; type: cell-based, mouse NSC-34 cells
Experimental: as §1, §2, §3

[6] = target: T2, EGFP-labeled SOD1 (wild-type, fALS variants, Cys111Ser, F50E/G51E) (Homo sapiens, UniProt P00441, F51E/G52E); assay: as above; type: cell-based, mouse NSC-34 cells; conditions: 20 μm S-XL6
T2 construct: expressed in transfected cells; host or cells: NSC-34 mouse neuroblastoma/motor neuron hybrid cells
Experimental: as §1, §2, §3

T1 sequence (P00441 2-154 C112S): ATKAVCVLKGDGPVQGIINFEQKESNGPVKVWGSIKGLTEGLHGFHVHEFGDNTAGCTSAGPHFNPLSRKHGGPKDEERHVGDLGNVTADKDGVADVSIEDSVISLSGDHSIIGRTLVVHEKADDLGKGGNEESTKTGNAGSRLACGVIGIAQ
Chain of SOD1^G93A (P00441 2-154 G94A limits assumed): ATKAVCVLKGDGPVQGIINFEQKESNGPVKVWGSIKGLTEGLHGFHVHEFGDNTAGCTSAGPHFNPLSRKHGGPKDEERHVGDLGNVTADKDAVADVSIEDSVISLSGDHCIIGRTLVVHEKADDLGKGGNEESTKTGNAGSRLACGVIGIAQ
T2 sequence (P00441 2-154 F51E/G52E): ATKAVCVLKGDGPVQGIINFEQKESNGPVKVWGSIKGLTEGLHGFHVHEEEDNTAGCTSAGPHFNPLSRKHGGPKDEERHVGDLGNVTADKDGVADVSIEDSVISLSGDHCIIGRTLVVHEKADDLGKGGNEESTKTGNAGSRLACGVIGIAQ

[O-][S+]1CCCCS1 (stereo not shown) [S-XL6, 1,2-dithiane-1-oxide]
monomeric population of fALS variants after S-XL6 treatment [1]: decreased | large (>1,000 kDa) aggregates after S-XL6 treatment ([1]; all fALS variants tested): diminished | blood–brain barrier crossing ([2]; fALS mouse model): crosses the blood–brain barrier | log BB at 1 h ([2]; transgenic SOD1^G93A, mouse, brain/blood, subcutaneous, 30 mg/kg): 0.02 | Kp at 1 h ([2]; transgenic SOD1^G93A, mouse, brain/blood, subcutaneous, 30 mg/kg, read-out: % BBB penetration): 0.0002 | Dmax of SOD1^G93A with S-XL6 [3]: approximately 79 Å | cross-linking of the Cys111Ser variant [4]: lack of cross-linking | cross-linking yield compared to leading cyclic thiosulfinates (Comp 2–5) [5]: highest cross-linking yield; also recorded: most effective compound | off-product with EGFP-wild-type and EGFP-D90A SOD1 [5]: high-molecular weight species consistent with trimeric SOD1 | binding to the constitutively monomeric variant (F50E/G51E) [6]: lack of binding
